# From patent publication US5789414A, “Pharmaceutical compositions comprising tetrahydropyrimidine derivates” (Yeda Research and Development Co. Ltd., priority 1992, dated 1998)
# Numbered stars: 1 amine (or outer) side, 2 acyl side, 3 side chain; on linkers, the order of the positions; unused ones are H or OH. Bridge positions count the residues as written; N and C are the ends. Square brackets hold non-standard residues; d marks the D form. Peptide text beside a SMILES is read from it. I, II: the chains in the order shown. Actinocin(9to1) = Cc1c2oc3c(C)ccc(C(=O)[*:1])c3nc-2c(C(=O)[*:2])c(N)c1=O; NMeV = CN[C@H](C(=O)O)C(C)C; Sar = CNCC(=O)O
# How the values were obtained:
# [1] = system: HL60 cells; test: [3H] thymidine incorporation (DNA synthesis) in HL60 cells; assay type: cell-based; conditions: Homo sapiens, HL-60, read-out: inhibition of [3H] thymidine incorporation
# Experimental: FIG. 6 illustrates reversal of adriamycin inhibition of DNA synthesis due to THPs. It depicts a schematic presentation of percent [^3 H] thymidine incorporated versus adriamycin concentration according to the table below the scheme. Empty squares--[^3 H] thymidine incorporation versus adriamycin concentration. Filled squares--[^3 H] thymidine incorporation versus adriamycin concentration in the presence of THPs (100 μg/ml).
# HL60 cells were grown in RPMI medium (Gibco) containing 10% fetal calf serum (Biological Laboratories--Bet Haemek) in microwell plates (Nunc). Cells were suspended in medium at a concentration of 2×10^5 cells per ml and dispersed into the wells of the plates in 100 μl aliquots. Following 20 hrs of incubation at 37° C., the cells were treated with THPs (100 μg/ml) and adriamycin at increasing concentrations as indicated in FIG. 6. After 24 hrs [^3 H] thymidine was added (1 μCi/well, […]) for a duration of 3 hrs. Thymidine incorporation was stopped by addition of 25 μl trichloroacetic acid (TCA) at 20%, and the plates were placed at 4° C. overnight. TCA precipitates were washed with 10% TCA (100 μl), solubilized in 100 μl 1N NaOH and transferred to vials for counting in the presence of 3 ml scintillation solution containing toluene:Lumax (Lumac, The Netherlands) (3:2) mix. Assays were performed in triplicates.
# [2] = Toxicity on administration to mice; assay type: in vivo; conditions: doses of 1, 10 and 100 mg/100 g body weight
# Excerpt: (§1) THP(A) and THP(B) are not toxic to mammals.
# [3] = system: gram positive and gram negative bacteria; test: Antibiotic activity test on bacterial cultures; assay type: cell-based; conditions: several cultures of gram positive and gram negative bacteria
# Excerpt: as §1
# [4] = system: E. coli; test: E. coli growth under high salt or in the presence of adriamycin; assay type: cell-based; conditions: conditions which otherwise prevent E. coli growth
# [5] = system: RNA polymerase II from HeLa cells; test: In vitro transcription of dCMP-tailed template, RNA polymerase II; assay type: biochemical, mammalian; conditions: for effect of the THP by itself on the transcription reactions: lanes 2, 6, 10
# Experimental: FIG. 5 is a radiogram showing the inhibition of RNA polymerase II transcription by Act D and its resumption due to the addition of THP(A) and THP(B). Relative intensities of the bands were determined as in Table 6. The concentration of the DNA was 71.4 μM.
# (§2) The inhibition of RNA polymerase transcription caused by Act D binding to DNA was studied using the system described in Kadesch and Chamberlin, 1982, in which purified RNA polymerases from mammalian cells, such as RNA polymerases I, II and II from HeLa cells, are able to transcribe defined dCMP-tailed DNA templates efficiently and specifically. The dCMP-tailed DNA system allows quantitative studies of transcription reactions by the polymerase protein itself in the absence of other protein factors, and is thus an appropriate system to analyze the direct effect of DNA-binding drugs on the transcription process, and the protective effect of THP(A) and THP(B) on transcription in the presence of Act D.
# (§3) DNA-dependent RNA polymerases I, II and III from HeLa cells (pol I, pol II and pol III, respectively) were purified by a method which is a modification of the procedure described by Hodo and Blatti, 1977.
# (§4) The templates DNA were linearized by restriction enzyme Pst I generating a 3' protruding end, and tailed at both ends with dCTP by using terminal transferase (Boehringer Mannheim). Following ethanol precipitation, the dCMP-tailed DNAs were digested with a second restriction enzyme, and the selected tailed fragment was purified from agarose gel as described by Kadesch and Chamberlin, 1982.
# Transcription reaction mixtures were incubated in 15 μl of transcription buffer containing 70 mM Tris-HCl (pH 7.9), 0.1M NH4 Cl, 6 mM MgCl2, 5 mM spermidine, 10% glycerol, 0.15 mM dithriothreitol, 0.6 μg of dCMP-tailed template, and 0.5 μl of HeLa RNA polymerase (3u) at 30° C. for 10 min. Pulse buffer (3.5 μl) containing 4.3 mM of ATP, GTP and CTP, and 170 μM UTP, 20 μCi of [α-^32 P]UTP was added to the transcription reaction mixture for 20 seconds incubation. Transcription elongation then took place by adding 1.5 μl of chase buffer containing 7 mM UTP in the presence or absence of 0.06 μg Act D. Transcription elongation was carried out for 10 min and was then stopped by addition of proteinase K buffer (0.6% SDS; 25 mM Tris pH 7.9; 25 mM EDTA final concentration) 200 μg/ml proteinase K, and 30 μg of tRNA, and incubated for 25 min at 65° C. The sample was ethanol precipitated, pellet was resuspended in loading buffer (90% formamide; 0.5×Tris borate buffer) and subjected to 6% polyacrylamide--urea gel electrophoresis. The autoradiogram of the gel was analyzed by molecular dynamics computing densitometer to determine the relative intensities of the bands. (Nucleoside triphosphates and tRNA were purchased from Sigma, proteinase K from Boehringer Mannheim, and [α-^32 P]CTP (400 Ci/mmol) from Amersham International, United Kingdom).
# The sensitivity of the three RNA polymerases from HeLa cells to various concentrations of Act D was determined, using the purified polymerases and a dCMP-tailed template of 225 bp for pol I and of 420 bp for pol II and pol III. These templates are expected to give runoff transcripts of 225 and 420 nucleotides, respectively, since RNA polymerase initiates transcription at discrete sites at the single-stranded tail double stranded duplex junction. In all experiments a pulse-chase protocol was used.
# It was figured that the concentration of the THP(A)+THP(B) required to prevent binding of Act D to DNA would be higher than that of Act D, since they are expected to protect the DNA in general and not necessarily at d(GpC) base pair (bp), whereas the concentration of Act D is related to the d(GpC) content of the DNA. […] Yet when THP(A) and THP(B) were added together in a ratio of 1:1, their effect was dramatic. At a concentration of 200 μM there was a recovery of 75% of transcription in the presence of 2.5 μM Act D, which by itself would have inhibited 97% of the reaction. […]
# [6] = system: d(ATGCAT); test: 1H NMR titration: equilibrium binding of Act D to d(ATGCAT) in presence and absence of THPs; conditions: no THPs
# Excerpt: Expanded views of (a) and (a') are shown in spectra (A) and (A'), respectively of FIG. 4(b). The spectra were obtained at pH 7 (as in FIG. 3).
# (c) Binding of Act D to d(ATGCAT). The binding of Act D to free oligonucleotide and to the oligonucleotide-THPs complex have been investigated by the ^1 H NMR titration technique.
# The equilibrium binding properties of Act D-d(ATGCAT) in the presence and absence of the THPs (Table 4) were derived from the proton peak area ratios of the free hexamer to the bound Act D-hexamer.
# [7] = system: RNA polymerase I from HeLa cells; test: In vitro transcription of dCMP-tailed template, RNA polymerase I; assay type: biochemical, mammalian
# Excerpt: as §2, with “D. […]” for “D.”
# (§5) Transcription reaction mixtures were incubated in 15 μl of transcription buffer containing 70 mM Tris-HCl (pH 7.9), 0.1M NH4 Cl, 6 mM MgCl2, 5 mM spermidine, 10% glycerol, 0.15 mM dithriothreitol, 0.6 μg of dCMP-tailed template, and 0.5 μl of HeLa RNA polymerase (3u) at 30° C. for 10 min. […] The autoradiogram of the gel was analyzed by molecular dynamics computing densitometer to determine the relative intensities of the bands. […]
# (§6) The sensitivity of the three RNA polymerases from HeLa cells to various concentrations of Act D was determined, using the purified polymerases and a dCMP-tailed template of 225 bp for pol I and of 420 bp for pol II and pol III. […]
# [8] = system: RNA polymerase III from HeLa cells; test: In vitro transcription of dCMP-tailed template, RNA polymerase III; assay type: biochemical, mammalian
# Excerpt: as §2, §3, §4, §5, §6
# [9] = system: RNA polymerases I, II and III from HeLa cells; test: In vitro transcription of dCMP-tailed template, summary for the three polymerases; assay type: biochemical, mammalian; conditions: pol I
# Excerpt: as §2, §5, §6
# [10] = system: HeLa whole cell extract (WCE); test: In vitro transcription using HeLa whole cell extract (WCE); assay type: biochemical
# Experimental: The DNA was preincubated with THPs (A+B) at increasing concentrations for 20 min at 30° C., actinomycin D was then added at a concentration of 0.4 μg/ml. Following 20 min of incubation, WCE (10 μl) was added for incubation of 20 min at 30° C. Radioactive nucleotide mix was then added for a pulse of 5 min followed by addition of chase mix containing 10 mM CTP. Transcription proceeded for 30 min at 30° C. and was then stopped. […] Lane M--molecular weight markers. Lane C--control reaction without […] or THPs. Lanes of reaction with 0.4 μg/ml actinomycin D are marked (+), lanes of increasing concentrations of THPs (0, 5, 10, 20, 50, 100, 200, 500 μg/ml) are also marked above the lanes.
# A 20-μl reaction contained 10 μl WCE, 1 μg DNA, 4 mM creatine phosphate, 500 μM ATP, GTP, UTP, 50 μM CTP, 20 μCi of [α-^32 P]CTP, and transcription was performed at 30° C. All reactions were preincubated 20 min before the addition of the nucleotide mixture; 3 min after the addition of radioactive nucleotides, (pulse), chase mix containing 10 mM unlabelled CTP was added and transcription proceeded for additional 20 min.
# [11] = system: enzymes; conditions: e.g. against heating, freezing and drying; cited from earlier work
# [12] = THP 10 μg/ml (66 μM, 60 μM printed for THP(B)), Act D 3 μg/ml [2.5 μM]
# [13] = THP 30 μg/ml (200 μM), Act D 3 μg/ml [2.5 μM]
# [14] = THP 60 μg/ml (400 μM), Act D 3 μg/ml [2.5 μM]
# [15] = THP 60 μg/ml (400 μM), without Act D
smiles,measurement,setting,value
COc1cccc2c1C(=O)c1c(O)c3c(c(O)c1C2=O)C[C@@](O)(C(=O)CO)C[C@@H]3O[C@H]1C[C@H](N)[C@H](O)[C@H](C)O1 [adriamycin],inhibition at 0.01 µg/mL,[1],30%
same,inhibition at 0.02 µg/mL,[1],40%
"CC1=NCC(O)C(C(=O)O)N1 (stereo not drawn) [THP(A), 2-methyl-4-carboxy-5-hydroxy-3,4,5,6-tetrahydropyrimidine]",toxic effects,[2],no toxic effects
same,antibiotic activity,[3],do not have antibiotic activity
same,growth of E. coli in the presence of adriamycin,[4],enable efficient growth of E. coli
same,growth of E. coli under high salt concentrations,[4],enable efficient growth of E. coli
same,% transcription,[5]; [12],0.2%
same,% transcription,[5]; [13],0.5%
same,% transcription,[5]; [14],1.5%
same,% transcription,[5]; [15],100%
same,effect of the THP by itself on the transcription reactions,[5]; without Act D,did not inhibit the transcription reactions
"Cc1c2oc3c(C)ccc(C(=O)N[C@@H]4C(=O)N[C@H](C(C)C)C(=O)N5CCC[C@H]5C(=O)N(C)CC(=O)N(C)[C@@H](C(C)C)C(=O)O[C@@H]4C)c3nc-2c(C(=O)N[C@@H]2C(=O)N[C@H](C(C)C)C(=O)N3CCC[C@H]3C(=O)N(C)CC(=O)N(C)[C@@H](C(C)C)C(=O)O[C@@H]2C)c(N)c1=O [Act D, Actinomycin D] (I: T[dV]P[Sar][NMeV] / II: T[dV]P[Sar][NMeV]; ester I:1-I:C, II:1-II:C; linker I:N-II:N via Actinocin(9to1))",d(ATGCAT) (free/bound),[6]; molar ratio Act D/d(ATGCAT) 0.16,4.9
same,d(ATGCAT) (free/bound),[6]; molar ratio Act D/d(ATGCAT) 0.32,1.7
same,d(ATGCAT) (free/bound),[6]; molar ratio Act D/d(ATGCAT) 0.48,0.8
same,d(ATGCAT) (free/bound),[6]; molar ratio Act D/d(ATGCAT) 0.64,0.4
same,Percentage of residual transcription,[7]; Actinomycin-D 1 μg/ml,16%
same,Percentage of residual transcription,[7]; Actinomycin-D 5 μg/ml,3%
same,inhibition of transcription,[5]; Act D 2.5 μM (3 μg/ml) by itself,97%
same,% transcription,"[5]; Act D 3 μg/ml [2.5 μM], THP 0",0.2%
same,Percentage of residual transcription,[5]; Actinomycin-D 1 μg/ml,22%
same,Percentage of residual transcription,[5]; Actinomycin-D 4 μg/ml,3%
same,Percentage of residual transcription,[5]; Actinomycin-D 5 μg/ml,3%
same,Percentage of residual transcription,[8]; Actinomycin-D 1 μg/ml,13%
same,Percentage of residual transcription,[8]; Actinomycin-D 3 μg/ml,3%
same,Percentage of residual transcription,[8]; Actinomycin-D 5 μg/ml,0.1%
same,residual transcription,[9]; 1 μg/ml Act D added with the chase,10-20%
same,residual transcription,[9]; Act D 3-5 μg/ml,0.1-3%
same,inhibition of the transcription reaction,[10]; Act D alone at 0.4 μg/ml,80%
same,residual transcription,"[10]; actinomycin D alone, 0.4 μg/ml",20%
"CC1=NCC[C@@H](C(=O)O)N1 [THP(B), 2-methyl-4-carboxy-3,4,5,6-tetrahydropyrimidine]",antibiotic activity,[3],do not have antibiotic activity
same,% transcription,[5]; [12],1.0%
same,% transcription,[5]; [13],2.7%
same,% transcription,[5]; [14],5.1%
same,% transcription,[5]; [15],100%
same,effect of the THP by itself on the transcription reactions,[5]; without Act D,did not inhibit the transcription reactions
same,protective effect on enzymes,[11],protective effect on enzymes
